Legend:
Format in all cases: biochemical
baculoviral GST-MLK3KD = target: T1, baculoviral GST-MLK3KD (Homo sapiens, UniProt Q16584); experiment: Mixed Lineage Kinase-3 inhibition assay (Millipore Multiscreen plate, 32P); details: 1 uM compound, 100 μM ATP
T1 construct: 2 μg/ml of baculoviral GST-MLK3KD; GST (N); host or cells: baculovirus expression system
Method in brief: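 Radiometric filter-plate assay: 2 μg/ml baculoviral GST-MLK3KD with 500 μg/ml myelin basic protein, 100 μM ATP plus [γ-32P]ATP, in 20 mM Hepes pH 7, 10 mM MgCl2, 1 mM DTT, 2% DMSO. Incubated 15 min at 37 °C, stopped and precipitated with cold TCA, washed, then scintillation counted.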

[1] = target: T2, recombinant human baculovirus-expressed VEGFR1 cytoplasmic domain (Homo sapiens, UniProt P17948); experiment: VEGFR1 kinase inhibition assay (ELISA-based, time-resolved fluorescence); details: 1 uM compound, 30 μM ATP
T2 construct: recombinant human baculovirus-expressed VEGFR1 cytoplasmic domain; host or cells: baculovirus expression system
T2 sequence (P17948 781-1338 limits assumed): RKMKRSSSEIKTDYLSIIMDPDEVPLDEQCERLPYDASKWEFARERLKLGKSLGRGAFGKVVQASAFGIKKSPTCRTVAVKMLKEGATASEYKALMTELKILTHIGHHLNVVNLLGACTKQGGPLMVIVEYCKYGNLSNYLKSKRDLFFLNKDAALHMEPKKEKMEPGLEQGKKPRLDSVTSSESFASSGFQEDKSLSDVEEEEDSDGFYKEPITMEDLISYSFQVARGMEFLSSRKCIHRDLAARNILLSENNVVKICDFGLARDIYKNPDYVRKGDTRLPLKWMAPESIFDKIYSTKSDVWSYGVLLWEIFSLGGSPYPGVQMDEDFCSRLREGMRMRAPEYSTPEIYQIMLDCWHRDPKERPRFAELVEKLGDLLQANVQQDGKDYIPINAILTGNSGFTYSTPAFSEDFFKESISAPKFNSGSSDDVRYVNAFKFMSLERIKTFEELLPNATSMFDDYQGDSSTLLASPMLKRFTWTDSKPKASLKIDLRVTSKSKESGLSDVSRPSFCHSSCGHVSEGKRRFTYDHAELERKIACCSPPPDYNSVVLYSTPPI
Method in brief: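 Prephosphorylated baculovirus-expressed VEGFR1 cytoplasmic domain (300 ng/ml) phosphorylates plate-bound PLC-γ/GST with 30 μM ATP, 10 mM MnCl2, pH 7.4, 15 min at 37 °C. Compounds tested at 1 μM. Phosphotyrosine detected with europium anti-phosphotyrosine antibody by time-resolved fluorescence.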

baculoviral GST-MLK2KDLZ = target: T3, baculoviral GST-MLK2KDLZ (Homo sapiens, UniProt Q02779); experiment: Mixed Lineage Kinase-2 inhibition assay (Millipore Multiscreen plate, 32P); details: 1 uM compound, 100 μM ATP
T3 construct: 3 μg/ml of baculoviral GST-MLK2KDLZ; GST (N); host or cells: baculovirus expression system
Method in brief: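 Baculoviral GST-MLK2KDLZ (3 μg/ml) phosphorylating myelin basic protein (500 μg/ml) with 100 μM ATP plus [γ-32P]ATP in Hepes pH 7, MgCl2, 2% DMSO, 15 min at 37° C. TCA-precipitated protein counted by scintillation.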

[2] = target: T4, recombinant human baculovirus-expressed FGFR1 cytoplasmic domain (Homo sapiens, UniProt P11362); experiment: FGFR1 kinase inhibition assay (ELISA-based, time-resolved fluorescence); details: 1 uM compound; 20 μM ATP
T4 construct: recombinant human baculovirus-expressed FGFR1 cytoplasmic domain; host or cells: baculovirus expression system
Method in brief: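 Prephosphorylated baculovirus FGFR1 cytoplasmic domain (15 ng/ml) phosphorylated plate-coated PLC-γ/GST with 20 μM ATP, 10 mM MnCl2, HEPES pH 7.4, 2% DMSO, 15 min at 37 °C. Compounds tested at 1 μM. Phosphotyrosine detected with europium-labelled antibody by time-resolved fluorescence.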

T4 sequence (P11362 398-822 limits assumed): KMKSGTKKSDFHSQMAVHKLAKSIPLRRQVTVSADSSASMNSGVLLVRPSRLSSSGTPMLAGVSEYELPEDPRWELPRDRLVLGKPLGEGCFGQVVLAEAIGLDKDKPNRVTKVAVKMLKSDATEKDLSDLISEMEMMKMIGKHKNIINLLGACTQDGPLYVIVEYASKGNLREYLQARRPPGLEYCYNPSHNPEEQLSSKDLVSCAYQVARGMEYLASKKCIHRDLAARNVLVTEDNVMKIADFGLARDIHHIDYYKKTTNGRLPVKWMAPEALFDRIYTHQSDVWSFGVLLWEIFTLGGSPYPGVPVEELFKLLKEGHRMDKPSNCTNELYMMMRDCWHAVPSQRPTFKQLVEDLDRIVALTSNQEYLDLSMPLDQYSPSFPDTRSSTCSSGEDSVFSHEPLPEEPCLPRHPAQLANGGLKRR
T1 sequence (Q16584 117-379 limits assumed): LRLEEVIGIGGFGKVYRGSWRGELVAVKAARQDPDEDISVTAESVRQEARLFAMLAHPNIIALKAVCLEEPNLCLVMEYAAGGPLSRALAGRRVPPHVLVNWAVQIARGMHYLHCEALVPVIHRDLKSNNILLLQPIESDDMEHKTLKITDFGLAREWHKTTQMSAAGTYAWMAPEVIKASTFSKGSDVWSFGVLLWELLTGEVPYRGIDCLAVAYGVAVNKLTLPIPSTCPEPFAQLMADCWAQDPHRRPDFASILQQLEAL
T3 sequence (Q02779 98-440 limits assumed): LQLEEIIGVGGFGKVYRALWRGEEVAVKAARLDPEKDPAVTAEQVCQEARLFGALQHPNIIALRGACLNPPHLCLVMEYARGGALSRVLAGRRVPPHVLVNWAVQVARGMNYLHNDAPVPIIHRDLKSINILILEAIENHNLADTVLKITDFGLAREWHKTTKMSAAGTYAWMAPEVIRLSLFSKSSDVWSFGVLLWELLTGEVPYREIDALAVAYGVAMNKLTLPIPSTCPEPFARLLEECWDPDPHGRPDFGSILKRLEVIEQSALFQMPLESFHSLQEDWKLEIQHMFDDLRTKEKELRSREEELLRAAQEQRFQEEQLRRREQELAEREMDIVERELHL

| Compound | MLK-3 Kinase % inhibition @ 1 uM (baculoviral GST-MLK3KD) [%] | VEGFR-1 kinase % inhibition @ 1 uM [1] [%] | MLK-2 Kinase % inhibition @ 1 uM (baculoviral GST-MLK2KDLZ) [%] | FGFR1 % inhibition @ 1 uM [2] [%] | inhibition at 1 µM (baculoviral GST-MLK3KD; read-out: MLK-3 Kinase % inhibition @ 1 uM) [%] | inhibition at 1 µM ([1]; read-out: VEGFR-1 kinase % inhibition @ 1 uM) [%] | inhibition at 1 µM (baculoviral GST-MLK2KDLZ; read-out: MLK-2 Kinase % inhibition @ 1 uM) [%] | inhibition at 1 µM [2] [%] |
| --- | --- | --- | --- | --- | --- | --- | --- | --- |
| O=C1NN=C(c2ccco2)C1=Cc1cn(CCOCc2ccccc2)c2ccccc12 [Compound 71] | 9 | 12 | 3 | 26 | – | – | – | – |
| O=C1NN=C(c2nccs2)C1=Cc1cn(CCOCc2ccccc2)c2ccccc12 [Compound 72] | 28 | 12 | 3 | 29 | – | – | – | – |
| CC(C)Cn1cc(C=C2C(=O)NN=C2c2nccs2)c2ccccc21 [Compound 73] | 5 | 12 | 12 | 19 | – | – | – | – |
| Cc1cc(C)c(C=C2C(=O)NN=C2c2cnccn2)[nH]1 [Compound 74, 4-[(3,5-dimethylpyrrol-2-yl)methylene]-3-pyrazin-2-yl-2-pyrazolin-5-one] | – | – | – | – | 72 | 74 | 17 | 48 |
| O=C1NN=C(c2cccs2)C1=Cc1cn(Cc2ccccc2)c2ccccc12 [Compound 75] | 24 | 5 | −5 | 26 | – | – | – | – |

Reference: patent US6831075B2, “Heterocyclic substituted pyrazolones” (Cephalon, Inc., priority 1999, dated 2004)
